Measurements: patent US20250034216A1, “STEREOSELECTIVE COVALENT LIGANDS FOR ONCOGENIC AND IMMUNOLOGICAL PROTEINS” (The Scripps Research Institute, priority 2021, published 2025)

Assays:
Assay in all cases: IA-DTB cysteine engagement
Type in all cases: binding
Conditions in all cases: 22Rv1 cells, 20 μM probe, 1 h, relative to DMSO
WDR45B_C63 = biological target: T1, WDR45B_C63 (Homo sapiens, UniProt Q5MNZ6)
T1 construct: endogenous in cells; host or cells: 22Rv1
Method in brief: (§1)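 In-situ probe treatment of cells; lysate 2 mg/mL, IA-DTB 1 h RT; MeOH/CHCl3 precipitation, DTT/iodoacetamide, trypsin; streptavidin enrichment; TMT labeling, high-pH fractionation. Ratio = TMT reporter intensity / mean DMSO channels, median-normalized.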

PRAF2_C34 = biological target: T2, PRAF2_C34 (Homo sapiens, UniProt O60831)
T2 construct: endogenous in cells; host or cells: 22Rv1
T2 sequence (O60831 1-178): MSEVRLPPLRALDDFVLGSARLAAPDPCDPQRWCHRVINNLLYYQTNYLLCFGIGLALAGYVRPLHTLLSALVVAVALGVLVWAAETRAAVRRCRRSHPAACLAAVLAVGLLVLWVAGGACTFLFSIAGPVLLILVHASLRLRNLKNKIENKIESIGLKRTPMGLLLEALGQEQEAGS
Method in brief: as §1

ATP9A_C31 = biological target: T3, ATP9A_C31 (Homo sapiens, UniProt O75110)
T3 construct: endogenous in cells; host or cells: 22Rv1
T3 sequence (O75110 1-1047): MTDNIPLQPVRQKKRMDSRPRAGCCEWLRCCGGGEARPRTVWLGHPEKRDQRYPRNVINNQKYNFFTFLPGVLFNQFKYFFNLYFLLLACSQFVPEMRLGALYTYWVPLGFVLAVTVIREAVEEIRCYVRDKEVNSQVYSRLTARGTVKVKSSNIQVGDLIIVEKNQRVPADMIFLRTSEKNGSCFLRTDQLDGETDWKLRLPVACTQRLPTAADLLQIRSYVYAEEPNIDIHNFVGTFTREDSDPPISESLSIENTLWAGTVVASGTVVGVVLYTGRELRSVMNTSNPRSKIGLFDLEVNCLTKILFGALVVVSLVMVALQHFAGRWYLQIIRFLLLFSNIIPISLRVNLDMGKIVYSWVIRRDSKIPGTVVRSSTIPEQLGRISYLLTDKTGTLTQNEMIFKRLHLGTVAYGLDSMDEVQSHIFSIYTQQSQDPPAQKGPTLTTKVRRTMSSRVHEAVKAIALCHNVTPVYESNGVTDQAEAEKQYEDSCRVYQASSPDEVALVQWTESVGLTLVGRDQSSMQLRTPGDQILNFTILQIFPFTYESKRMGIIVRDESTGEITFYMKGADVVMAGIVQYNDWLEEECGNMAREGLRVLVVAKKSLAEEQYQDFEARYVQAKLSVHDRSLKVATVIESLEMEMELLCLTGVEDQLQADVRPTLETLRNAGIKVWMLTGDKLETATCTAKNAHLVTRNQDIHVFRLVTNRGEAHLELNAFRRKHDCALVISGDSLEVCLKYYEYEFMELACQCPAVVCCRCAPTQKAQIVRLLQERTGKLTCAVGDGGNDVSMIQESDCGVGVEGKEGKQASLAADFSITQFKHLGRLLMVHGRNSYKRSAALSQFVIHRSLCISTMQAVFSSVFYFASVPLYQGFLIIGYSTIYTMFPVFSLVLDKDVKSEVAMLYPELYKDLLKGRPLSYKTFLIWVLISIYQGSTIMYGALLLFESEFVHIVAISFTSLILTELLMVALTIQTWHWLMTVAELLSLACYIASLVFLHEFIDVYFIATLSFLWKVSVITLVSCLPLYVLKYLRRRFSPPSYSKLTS
Method in brief: as §1

T1 sequence (Q5MNZ6 whole entry): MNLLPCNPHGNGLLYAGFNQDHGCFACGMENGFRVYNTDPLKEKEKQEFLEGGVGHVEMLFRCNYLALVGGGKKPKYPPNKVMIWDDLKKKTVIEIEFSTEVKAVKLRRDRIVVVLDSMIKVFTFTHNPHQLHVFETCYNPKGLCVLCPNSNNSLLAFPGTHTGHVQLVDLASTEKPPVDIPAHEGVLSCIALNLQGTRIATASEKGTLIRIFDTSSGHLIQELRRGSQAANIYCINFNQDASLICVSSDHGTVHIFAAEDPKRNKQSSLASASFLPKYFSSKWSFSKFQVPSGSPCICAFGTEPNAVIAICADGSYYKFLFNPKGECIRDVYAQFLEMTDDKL

SMILES: C=CC(=O)N1C[C@@H](c2ccc(Br)cc2)[C@H]1C(=O)Nc1cccc2cccnc12 [MY-1A, (2S,3R)-1-acryloyl-3-(4-bromophenyl)-N-(quinolin-8-yl)azetidine-2-carboxamide]
- % engagement WDR45B_C63 (WDR45B_C63): 52.25%
- % engagement PRAF2_C34 (PRAF2_C34): 76%
- % engagement ATP9A_C31 (ATP9A_C31): 84.5%

SMILES: C=CC(=O)N1C[C@H](c2ccc(Br)cc2)[C@@H]1C(=O)Nc1cccc2cccnc12 [MY-1B, (2R,3S)-1-acryloyl-3-(4-bromophenyl)-N-(quinolin-8-yl)azetidine-2-carboxamide]
- % engagement WDR45B_C63 (WDR45B_C63): 7.25%
- % engagement PRAF2_C34 (PRAF2_C34): 74%
- % engagement ATP9A_C31 (ATP9A_C31): 79.5%

SMILES: C=CC(=O)N1C[C@H](c2ccc(Br)cc2)[C@H]1C(=O)Nc1cccc2cccnc12 [MY-3A, (2S,3S)-1-acryloyl-3-(4-bromophenyl)-N-(quinolin-8-yl)azetidine-2-carboxamide]
- % engagement WDR45B_C63 (WDR45B_C63): 0%
- % engagement PRAF2_C34 (PRAF2_C34): 55.5%
- % engagement ATP9A_C31 (ATP9A_C31): 73%

SMILES: C=CC(=O)N1C[C@H](c2ccc(Br)cc2)[C@H]1C(=O)Nc1cccc2cccnc12 [MY-3B, (2S,3S)-1-acryloyl-3-(4-bromophenyl)-N-(quinolin-8-yl)azetidine-2-carboxamide]
- % engagement WDR45B_C63 (WDR45B_C63): 86.75%
- % engagement PRAF2_C34 (PRAF2_C34): 78.5%
- % engagement ATP9A_C31 (ATP9A_C31): 86.5%
